# According to patent publication US20240391889A1, “ANTIMICROBIAL COMPOUNDS AND THE METHODS OF USE” (priority 2021, published 2024):
# Like-named read-outs stand apart in the source and are kept apart here. Numbered stars: 1 amine (or outer) side, 2 acyl side, 3 side chain; on linkers, the order of the positions; unused ones are H or OH. Square brackets hold non-standard residues; d marks the D form. Peptide text beside a SMILES is read from it. N(tridecyl)Gly = CCCCCCCCCCCCCNCC(=O)O; X1 = CC(c1ccccc1)N(CC(=O)[*:2])[*:1]; NFurfurylGly = O=C(O)CNCc1ccco1; Gly(N(CH2)3NH2) = NCCCNCC(=O)O; Nphe = O=C(O)CNCc1ccccc1; NPrGly = CCCNCC(=O)O; Nlys = NCCCCNCC(=O)O
# Experiments:
# C. albicans = type: cell-based, Candida albicans
# Source text: One of the most serious crises facing both new and existing antimicrobial compounds is the rapid development of resistance by pathogens to that compound, rendering it useless. This has been an issue observed with all major commercially available antimicrobial drugs and is an increasingly prevalent issue with antifungal drugs (Clatworthy et al., Nat. Chem. Biol. 3, 541-548 (2007); Wiederhold et al., Infect. Drug Resist. 10, 249-259 (2017)). The ability of C. albicans to gain resistance against RMG9-11 was evaluated using two techniques; serial and single passage. Ching et al. described a method for single passage assessment of gain of resistance, which was used here with RMG9-11 (Ching et al., Sci. Rep. 10, 8754 (2020)). Briefly, a single colony of C. albicans was incubated overnight in RPMI-MOPS. Fungal cultures were then incubated for either 24 or 48 hours with concentrations of RMG9-11 ranging from 0 to 80% MIC. […]
# Gain of resistance to RMG9-11 by C. albicans was determined using a serial passage assay following previously published methods.43 Single colonies of C. albicans from a frozen stock streak plate were added to a saline solution (0.85%) to achieve an OD530=0.15-0.25. […]
# [1] = test system: single donor human red blood cells (hRBC)
compound,measurement,setting,value
CCCCCCCCCCCCCNCC(=O)N(CCC)CC(=O)N(CC(=O)N(CCCCN)CC(=O)N(CC(=O)N(CC(=O)N(CCCN)CC(N)=O)Cc1ccccc1)Cc1ccco1)C(C)c1ccccc1 (stereo not drawn) [RMG9-11] (H-[N(tridecyl)Gly][NPrGly][X1][Nlys][NFurfurylGly][Nphe][Gly(N(CH2)3NH2)]-NH2),Serial Passage MIC,C. albicans; Treated: serial passage with 1 to 25% MIC RMG9-11,6.25 µg/mL
same,Serial Passage MIC,C. albicans; Untreated C. albicans,6.25 µg/mL
same,HC10 hRBC,[1],29 µg/mL
